Our source for the IC50 values is patent US20080146555A1, “Uses of Kinase Inhibitors and Compositions Thereof” (GPC Biotech, Inc, priority 2004, published 2008).

In assay [1] the target is T1, Lyn (Homo sapiens, UniProt P07948).
T1 construct: purchased Upstate 14-510
The experiment in a line: Lyn kinase assay. Format: biochemical. As to the method: • 1. 10× Reaction Buffer: 500 mM Tris-HCl, pH 7.5, 1 mM EGTA, 1 mM sodium orthovanadate, 1% 2-mercaptoethanol. • 2. Enzyme Dilution Buffer (EDB): 50 mM Tris-HCl, pH 7.5, 1 mM EGTA, 0.1 mM sodium orthovanadate, 0.03% Brij-35, 0.1% 2-mercaptoethanol, 1 mg/ml BSA. • 3. Lyn, active: Dilute to 2-16 ng/μl with EDB. Use 2.5 μl per assay point. • 4. Poly(Glu-4-Tyr) (4:1): Prepare a 1 mg/ml stock. Use 2.5 μl per assay point for a final concentration of 0.1 mg/ml per assay point. • 5. [γ-^32P]ATP: Stock 1 mCi/100 μl (3000 Ci/mmol, obtained from PerkinElmer, Cat. # BLU002A). Make 10 μl aliquots (100 μCi/vial). Before starting the assay, dilute an aliquot to 1 μCi/μl with 90 μl of 75 mM MgCl2 and 500 μM cold ATP in 20 mM MOPS, pH 7.2, 25 mM β-glycerol phosphate, 5 mM EGTA, 1 mM sodium orthovanadate, 1 mM dithiothreitol.
• 1. Add 2.5 μl of 10× Reaction Buffer per assay. • 2. Add 2.5 μl of Poly (Glu-4-Tyr) (4:1). • 3. Add 2.5 μl (5-40 ng) Lyn, active. • 4. Add 7.5 μl of sterile, distilled water. • 5. Add 10 μl of the diluted [γ-^32P]ATP mixture. • 6. Incubate for 10 minutes at 30° C. • 7. Transfer a 20 μl aliquot onto the center of a 2 cm×2 cm P81 paper. • 8. Wash the assay squares three times for 5 minutes with 0.75% phosphoric acid. • 9. Wash the assay squares once for 5 minutes with acetone. • 10. Transfer the assay squares to vial and add 5 ml scintillation cocktail. • 11. Read in scintillation counter. Compare cpm of enzyme samples to cpm of control samples that contain background control.

For assay [2], the target named is T2, Fyn (Homo sapiens, UniProt P06241).
T2 construct: purchased Upstate 14-441
In words: Fyn kinase assay. Type of assay: biochemical. As to the method:
• 1. Assay Buffer: 200 mM Tris-HCl pH 7.5, 0.4 mM EGTA, 0.4 mM sodium orthovanadate. • 2. Magnesium/ATP Cocktail (Catalog #20-113): 500 μM cold ATP and 75 mM magnesium chloride in 20 mM MOPS, pH 7.2, 25 mM α-glycerol phosphate, 5 mM EGTA, 1 mM sodium orthovanadate, 1 mM dithiothreitol. • 3. [γ-^32P]ATP: Stock 1 mCi/100 μl (3000 Ci/mmol, obtained from DuPont-NEN). Make 10 μl aliquots (100 μCi/vial). Before starting the assay, dilute an aliquot with 90 μl of Magnesium/ATP Cocktail. • 4. Enzyme Dilution Buffer: 20 mM MOPS pH 7.5, 1 mM EDTA, 0.01% Brij-35, 5% glycerol, 0.1% β-mercaptoethanol, 1 mg/ml BSA. • 5. Fyn: Dilute with Enzyme Dilution Buffer to prepare a 4 ng-40 ng/μl stock. Use 2.5 μl per assay point. • 6. Src Substrate Peptide (Catalog #12-140): Dilute to 2.5 mM with distilled water. Use 2.5 μl per say point.
• 1. Add 6.25 μl of Assay Buffer per assay. • 2. Add 2.5 μl of diluted Fyn. • 3. Add 2.5 μl Src Substrate peptide (250 μM). • 4. Add 3.75 μl distilled water. • 5. Add 10 μl of the [γ-^32P]ATP solution. • 6. Incubate for 10 minutes at 30° C. • 7. Transfer a 20 μl aliquot onto the center of a 2 cm×2 cm P81 paper. • 8. Wash assay squares three times with 0.75% phosphoric acid for 5 minutes per wash. • 9. Wash assay squares once with acetone for 1-2 minutes. • 10. Transfer assay squares to a scintillation vial and add 1 ml scintillation cocktail. • 11. Read in scintillation counter. Compare cpm of enzyme samples to cpm of control samples that contain no enzyme (background control).

Assay [3] relates to 1A9. In words: SRB cytotoxicity, 1A9 parental cells. Format: cell-based. As to conditions: Homo sapiens, 72 h. As to the method:
In these experiments, the P-glycoprotein expressing NCI-Adr resistant subline (Vickers et al., 1989. Mol Endocrinology 3 (1):157-164) was used. […] Briefly, cells were plated in 96 well dishes 24 hours prior to compound addition. Where noted, they were exposed to verapamil for 4 hours prior to compound addition and then throughout the treatment period (72 hours). The assay was terminated with the addition of cold TCA to a final concentration of 10% and the plates were incubated for one hour at 4° C. The plates were then washed 5 times with water and 100 μl of a Sulforhodamine B solution (4%) was added to each well. The plate was then incubated for 10 minutes at room temperature before removal of unbound dye by washing with 1% acetic acid.
The tubulin mutated, paclitaxel-resistant human ovarian carcinoma cell line 1A9-PTX10 and its parental paclitaxel-sensitive cell line 1A9 were derived from the A2780 human ovarian carcinoma cell line (J Biol Chem (1997) 272, 17118-17124).

Setting [4] is: read-out: LYN Inhibition (IC50).
Where [5] appears, read: read-out: FYN Inhibition (IC50).

Where a name gives a salt, the structure may show the parent alone. Read-outs that look alike come from different tables or passages of the source. A value given as a limit tells only on which side of the number the result lay.

T1 sequence (P07948 whole entry): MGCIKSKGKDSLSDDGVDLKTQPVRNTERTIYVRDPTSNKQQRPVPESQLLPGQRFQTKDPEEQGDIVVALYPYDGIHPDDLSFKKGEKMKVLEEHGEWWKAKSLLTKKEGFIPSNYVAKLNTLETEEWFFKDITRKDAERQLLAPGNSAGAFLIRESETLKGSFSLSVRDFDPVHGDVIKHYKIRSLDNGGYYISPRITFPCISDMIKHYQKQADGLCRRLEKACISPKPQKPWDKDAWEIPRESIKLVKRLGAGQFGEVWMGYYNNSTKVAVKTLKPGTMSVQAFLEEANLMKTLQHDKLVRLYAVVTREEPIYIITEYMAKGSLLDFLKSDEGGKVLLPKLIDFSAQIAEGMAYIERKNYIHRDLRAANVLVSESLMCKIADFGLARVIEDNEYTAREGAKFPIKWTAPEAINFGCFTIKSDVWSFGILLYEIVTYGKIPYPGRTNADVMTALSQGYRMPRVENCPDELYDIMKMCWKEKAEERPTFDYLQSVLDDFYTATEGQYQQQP
T2 sequence (P06241 whole entry): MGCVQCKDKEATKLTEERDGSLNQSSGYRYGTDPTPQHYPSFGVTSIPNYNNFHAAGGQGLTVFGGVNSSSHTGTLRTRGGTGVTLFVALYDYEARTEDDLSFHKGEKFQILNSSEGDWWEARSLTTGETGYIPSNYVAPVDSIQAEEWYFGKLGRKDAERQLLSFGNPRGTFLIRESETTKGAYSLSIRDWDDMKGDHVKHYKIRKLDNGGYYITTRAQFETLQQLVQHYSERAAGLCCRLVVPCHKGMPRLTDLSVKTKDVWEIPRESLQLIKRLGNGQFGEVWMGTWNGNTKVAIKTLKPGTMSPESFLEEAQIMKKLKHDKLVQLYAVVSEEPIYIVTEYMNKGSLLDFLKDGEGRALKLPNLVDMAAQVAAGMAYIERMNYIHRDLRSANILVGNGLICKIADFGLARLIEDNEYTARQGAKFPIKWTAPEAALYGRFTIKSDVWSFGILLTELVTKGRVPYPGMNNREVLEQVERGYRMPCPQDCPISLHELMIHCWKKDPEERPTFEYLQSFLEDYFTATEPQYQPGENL

Regarding `COCCN1CCN(Cc2ccc(-c3n[nH]c4c3C(=O)c3c(NC(=O)NN5CCOCC5)cccc3-4)cc2)CC1` [Compound B16, N-[3-(4-{[4-(2-methoxyethyl)piperazinyl]methyl}phenyl)-4-oxoindeno[2,3-d]pyrazol-5-yl](morpholin-4-ylamino)carboxamide dihydrochloride], the IC50 in assay [1] (kinase panel, 10 μM ATP, read-out: Lyn IC50) is less than 100 nM; in assay [1] (setting [4]), less than 100 nM; in assay [2] (kinase panel, 10 μM ATP, read-out: Fyn IC50), less than 100 nM; in assay [2] (setting [5]), less than 50 nM; in assay [3], 10.7 nM.

Consider `CC(C)N1CCN(C(=O)COc2ccc(-c3n[nH]c4c3C(=O)c3c(NC(=O)NN5CCOCC5)cccc3-4)cc2)CC1` [Compound A37], for which the 50% inhibitory concentration (IC50) was less than 50 nM in assay [1] (setting [4]), less than 100 nM in assay [2] (setting [5]) and 13.3 nM in assay [3].

In general, IC50 refers to the concentration that gives 50% inhibition.
